Results taken from EP4768479A1 (Hubei Bio-Pharmaceutical Industrial Technological Institute …, priority 2023, dated 2025).

Experiments:
Type in all cases: in vitro ADME
CYP1A2 = target: T1, CYP1A2 (Homo sapiens, UniProt P05177); experiment: CYP inhibition assay in mixed human liver microsomes; conditions: read-out: Inhibition Rate % CYP1A2
T1 construct: Mixed human liver microsomes; from tissue; host or cells: mixed (pooled) human liver microsomes
T1 sequence (P05177 1-516): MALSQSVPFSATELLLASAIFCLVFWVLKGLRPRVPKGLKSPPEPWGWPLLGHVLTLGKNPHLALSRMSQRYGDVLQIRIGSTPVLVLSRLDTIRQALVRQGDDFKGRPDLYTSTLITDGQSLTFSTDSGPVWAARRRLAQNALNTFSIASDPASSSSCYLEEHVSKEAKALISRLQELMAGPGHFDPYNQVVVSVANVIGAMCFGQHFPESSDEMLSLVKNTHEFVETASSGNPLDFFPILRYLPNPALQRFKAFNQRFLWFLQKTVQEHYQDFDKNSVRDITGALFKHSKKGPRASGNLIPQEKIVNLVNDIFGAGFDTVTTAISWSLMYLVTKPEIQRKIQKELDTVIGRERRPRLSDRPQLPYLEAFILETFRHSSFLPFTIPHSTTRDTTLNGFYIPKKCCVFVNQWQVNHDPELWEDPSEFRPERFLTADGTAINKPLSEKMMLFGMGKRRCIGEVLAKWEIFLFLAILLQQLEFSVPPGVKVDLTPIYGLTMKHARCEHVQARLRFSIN
Description: (§1) The inhibitory effects of the compounds on six enzymes, i.e., CYP1A2, CYP2C9, CYP2C19, CYP2D6, CYP3A4 (midazolam), and CYP2B6, were evaluated at a concentration of 10 µM. Mixed human liver microsomes, which were previously stored in a -80°C refrigerator before use, were taken out and thawed in a water bath at 37°C before use, and placed on ice for further operation. 100 µL of microsome working solution was taken, and added with 2 µL of compound or positive inhibitor working solution. 2 µL of solvent was added to the solvent control. The mixture was pre-incubated in a water bath at 37°C for 10 minutes. After the preincubation, 98 µL of NADPH regeneration solution was added to all samples to initiate the reaction. Then, the samples were put back into the water bath and incubated for a period of time. The reaction was quenched with 200 µL of stop solution. The plate was centrifuged at 3,220 g for 10 minutes, 100 µL of supernatant was transferred, and 100 µL of water was added and mixed well to the assay plate for LC/MS/MS analysis. [Table 2] CYP450 Inhibition Results of Compounds

CYP2B6 = target: T2, CYP2B6 (Homo sapiens, UniProt P20813); experiment: as above; conditions: read-out: Inhibition Rate % CYP2B6
T2 construct: Mixed human liver microsomes; from tissue; host or cells: mixed (pooled) human liver microsomes
T2 sequence (P20813 1-491): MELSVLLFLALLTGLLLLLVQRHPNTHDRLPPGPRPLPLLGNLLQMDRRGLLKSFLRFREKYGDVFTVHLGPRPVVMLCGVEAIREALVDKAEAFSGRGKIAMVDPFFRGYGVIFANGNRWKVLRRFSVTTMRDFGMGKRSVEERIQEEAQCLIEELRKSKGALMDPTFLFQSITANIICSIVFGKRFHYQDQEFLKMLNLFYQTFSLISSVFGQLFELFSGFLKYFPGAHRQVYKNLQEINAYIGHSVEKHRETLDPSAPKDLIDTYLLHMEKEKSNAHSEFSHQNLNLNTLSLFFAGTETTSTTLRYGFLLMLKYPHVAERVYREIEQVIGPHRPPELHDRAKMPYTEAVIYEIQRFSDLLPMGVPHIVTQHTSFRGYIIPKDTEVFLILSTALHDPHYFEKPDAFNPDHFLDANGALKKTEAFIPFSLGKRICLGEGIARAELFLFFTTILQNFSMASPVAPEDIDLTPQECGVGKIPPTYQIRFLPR
Description: as §1

CYP2C19 = target: T3, CYP2C19 (Homo sapiens, UniProt P33261); experiment: as above; conditions: read-out: Inhibition Rate % CYP2C19
T3 construct: Mixed human liver microsomes; from tissue; host or cells: mixed (pooled) human liver microsomes
T3 sequence (P33261 whole entry): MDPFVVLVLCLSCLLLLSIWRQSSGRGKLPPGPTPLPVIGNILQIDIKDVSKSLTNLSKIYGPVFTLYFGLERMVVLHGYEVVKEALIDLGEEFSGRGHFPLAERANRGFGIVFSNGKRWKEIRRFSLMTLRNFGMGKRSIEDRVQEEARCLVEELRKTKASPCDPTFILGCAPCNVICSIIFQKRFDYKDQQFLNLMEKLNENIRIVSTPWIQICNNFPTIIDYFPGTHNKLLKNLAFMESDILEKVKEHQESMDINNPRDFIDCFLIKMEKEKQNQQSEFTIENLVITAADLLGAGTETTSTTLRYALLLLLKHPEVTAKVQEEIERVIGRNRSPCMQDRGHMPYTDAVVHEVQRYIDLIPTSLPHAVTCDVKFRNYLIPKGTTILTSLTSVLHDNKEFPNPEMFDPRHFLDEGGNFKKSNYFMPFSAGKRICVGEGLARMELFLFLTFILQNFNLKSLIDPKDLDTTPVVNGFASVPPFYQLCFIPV
Description: as §1

CYP2C9 = target: T4, CYP2C9 (Homo sapiens, UniProt P11712); experiment: as above; conditions: read-out: Inhibition Rate % CYP2C9
T4 construct: Mixed human liver microsomes; from tissue; host or cells: mixed (pooled) human liver microsomes
T4 sequence (P11712 whole entry): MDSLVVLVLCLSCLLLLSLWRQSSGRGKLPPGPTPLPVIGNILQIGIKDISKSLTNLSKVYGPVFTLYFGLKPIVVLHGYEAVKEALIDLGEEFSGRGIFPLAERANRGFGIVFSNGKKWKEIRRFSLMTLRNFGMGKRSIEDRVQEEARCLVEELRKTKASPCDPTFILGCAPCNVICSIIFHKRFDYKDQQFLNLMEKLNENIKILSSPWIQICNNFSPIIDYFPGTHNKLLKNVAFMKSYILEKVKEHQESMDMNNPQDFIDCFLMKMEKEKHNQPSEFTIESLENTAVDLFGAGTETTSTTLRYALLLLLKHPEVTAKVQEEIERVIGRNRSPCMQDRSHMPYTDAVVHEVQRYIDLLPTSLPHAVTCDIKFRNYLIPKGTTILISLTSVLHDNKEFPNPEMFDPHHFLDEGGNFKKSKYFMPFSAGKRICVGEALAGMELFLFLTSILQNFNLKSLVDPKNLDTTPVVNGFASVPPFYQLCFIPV
Description: as §1

CYP2D6 = target: T5, CYP2D6 (Homo sapiens, UniProt P10635); experiment: as above; conditions: read-out: Inhibition Rate % CYP2D6
T5 construct: Mixed human liver microsomes; from tissue; host or cells: mixed (pooled) human liver microsomes
T5 sequence (P10635 whole entry): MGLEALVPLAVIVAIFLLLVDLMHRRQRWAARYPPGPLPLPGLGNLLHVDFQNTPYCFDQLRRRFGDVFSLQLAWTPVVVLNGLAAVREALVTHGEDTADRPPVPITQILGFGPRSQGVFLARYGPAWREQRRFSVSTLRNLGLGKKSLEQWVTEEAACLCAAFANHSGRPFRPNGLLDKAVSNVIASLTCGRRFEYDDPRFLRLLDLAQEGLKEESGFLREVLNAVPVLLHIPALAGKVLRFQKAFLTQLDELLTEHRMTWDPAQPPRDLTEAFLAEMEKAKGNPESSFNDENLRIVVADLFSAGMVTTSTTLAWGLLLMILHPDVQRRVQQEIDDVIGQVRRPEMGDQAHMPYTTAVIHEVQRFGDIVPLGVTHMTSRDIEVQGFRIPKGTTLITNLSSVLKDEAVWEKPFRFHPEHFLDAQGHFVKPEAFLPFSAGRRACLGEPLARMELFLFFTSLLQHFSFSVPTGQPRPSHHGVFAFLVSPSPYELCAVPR
Description: as §1

CYP3A4 = target: T6, CYP3A4 (Homo sapiens, UniProt P08684); experiment: as above; conditions: probe midazolam, read-out: Inhibition Rate % CYP3A4 (midazolam)
T6 construct: Mixed human liver microsomes; from tissue; host or cells: mixed (pooled) human liver microsomes
T6 sequence (P08684 whole entry): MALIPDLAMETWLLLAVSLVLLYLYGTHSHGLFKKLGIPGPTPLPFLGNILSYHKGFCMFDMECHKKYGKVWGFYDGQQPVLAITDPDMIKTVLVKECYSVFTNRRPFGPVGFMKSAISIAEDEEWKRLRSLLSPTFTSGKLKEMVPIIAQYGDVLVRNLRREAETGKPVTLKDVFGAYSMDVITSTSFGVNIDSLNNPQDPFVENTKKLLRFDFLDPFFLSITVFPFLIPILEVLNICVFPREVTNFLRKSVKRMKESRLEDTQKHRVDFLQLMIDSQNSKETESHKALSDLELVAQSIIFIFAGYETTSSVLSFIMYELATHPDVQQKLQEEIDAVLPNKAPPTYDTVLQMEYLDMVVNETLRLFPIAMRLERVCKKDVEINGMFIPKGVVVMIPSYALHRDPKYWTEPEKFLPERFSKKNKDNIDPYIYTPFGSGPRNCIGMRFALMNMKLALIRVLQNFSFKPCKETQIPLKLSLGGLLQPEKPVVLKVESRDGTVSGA
Description: as §1

[1] = Bidirectional permeability study in Caco-2 cells; conditions: human, pH 7.4, Caco-2, 2.00 µM, A to B
Description: Caco-2 cells were inoculated onto […] (PET) in 96-well inserted plates at a rate of 1×10^5 cells/cm^2, and the medium was changed every 4 to 5 days until day 21 to 28, to form a fused cell monolayer. The transport buffer in the assay was HBSS and 10.0 mM HEPES, with a pH of 7.40±0.05. The test compounds were subjected to a bidirectional test at 2.00 µM in the presence and absence of GF120918 (10.0 µM). Digoxin was subjected to a bidirectional test at 10.0 µM in the presence and absence of GF120918 (10.0 µM), while Nadolol and Metoprolol were subjected to a test from direction A to direction B at 2.00 µM in the absence of GF120918 (10.0 µM). The above tests were performed in duplicate. The final concentration of DMSO was adjusted to be lower than 1%. The plate was incubated in a CO2 incubator at 37°C±1°C for 2 hours, and 5% CO2 was added under saturated humidity without shaking. All the samples, after being mixed with acetonitrile containing internal standard, were centrifuged at 3,200 g for 10 minutes. For Nadolol and Metoprolol, 200 µL of supernatant was diluted with 600 µL of distilled water for LC-MS/MS analysis. For Digoxin and test compounds, 200 µL of supernatant was diluted with 200 µL of distilled water for LC-MS/MS analysis. The concentrations of the test compounds and control compounds in the starting solution, the donor solution, and the acceptor solution were quantified by LC-MS/MS based on a peak area ratio of the analyte to the internal standard.
After the transport assay, the integrity of the Caco-2 cell monolayer was determined using Lucifer Yellow Exclusion Assay. [Table 4] Bidirectional Permeability of Compounds in Caco-2 Cells

Row | Structure (SMILES) | inhibition at 10 µM (CYP1A2) [%] | inhibition at 10 µM (CYP2B6) [%] | inhibition at 10 µM (CYP2C19) [%] | inhibition at 10 µM (CYP2C9) [%] | inhibition at 10 µM (CYP2D6) [%] | inhibition at 10 µM (CYP3A4) [%] | Papp A→B at 2 h, 2 µM [1] [×10⁻⁶ cm/s]
1 | COC(=O)NS(=O)(=O)c1sc(CC(C)C)c(C)c1-c1ccc(Cn2ccnc2C(F)(F)F)cc1 [Compound I-9, Methyl ((5-isobutyl-4-methyl-3-(4-((2-(trifluoromethyl)-1H-imidazol-1-yl)methyl)phenyl)thiophen-2-yl)sulfonyl)carbamate] | 0 | 22.2 | 29.8 | 18.6 | 0 | 0 | 2.29
2 | Cc1c(CC(C)C)sc(S(=O)(=O)NC(=O)OCC(C)(C)O)c1-c1ccc(Cn2ccnc2C(F)(F)F)cc1 [Compound I-10, 2-hydroxy-2-methylpropyl ((5-isobutyl-4-methyl-3-(4-((2-(trifluoromethyl)-1H-imidazol-1-yl)methyl)phenyl)thiophen-2-yl)sulfonyl)carbamate] | 0 | 13.7 | 7.4 | 5.3 | 0 | 0 | 2.63
3 | Cc1c(CC(C)C)sc(S(=O)(=O)NC(=O)OCCO)c1-c1ccc(Cn2ccnc2C(F)(F)F)cc1 [Compound I-13, 2-hydroxyethyl ((5-isobutyl-4-methyl-3-(4-((2-(trifluoromethyl)-1H-imidazol-1-yl)methyl)phenyl)thiophen-2-yl)sulfonyl)carbamate] | 3.5 | 11.3 | 17.3 | 12.2 | 0 | 9.6 | 1.98
4 | COC(=O)NS(=O)(=O)c1sc(CC(C)C)c(C)c1-c1ccc(Cn2ccnc2Cl)c(F)c1 [Compound I-14, Methyl ((3-(4-((2-chloro-1H-imidazol-1-yl)methyl)-3-fluorophenyl)-5-isobutyl-4-methylthiophen-2-yl)sulfonyl)carbamate] | 5.6 | 4.3 | 11.9 | 24.8 | 2.1 | 14 | 3.73
5 | COC(=O)NS(=O)(=O)c1sc(CC(C)C)c(C)c1-c1ccc(Cn2ccnc2C(C)(C)O)cc1 [Compound I-19, Methyl ((3-(4-((2-(2-hydroxypropan-2-yl)-1H-imidazol-1-yl)methyl)phenyl)-5-isobutyl-4-methylthiophen-2-yl)sulfonyl)carbamate] | 0 | 3.8 | 0 | 0 | 0 | 7.6 | 3.24
6 | Cc1c(CC(C)C)sc(S(=O)(=O)Nc2ncccn2)c1-c1ccc(Cn2ccnc2Cl)cc1 [Compound I-23, 3-(4-((2-chloro-1H-imidazol-1-yl)methyl)phenyl)-5-isobutyl-4-methyl-N-(pyrimidin-2-yl)thiophene-2-sulfonamide] | 8.3 | 7.6 | 15.4 | 20.5 | 0 | 0 | 5.22
7 | CCCCOC(=O)NS(=O)(=O)c1sc(CC(C)C)cc1-c1ccc(Cn2ccnc2)cc1 [Control Compound I, reference compound] | 95.4 | 63.2 | 100 | 100 | 86.5 | 92.6 | 0.381
